Assays:
DEN2 = test: Dengue virus infection-induced cytopathic effect in BHK-21 cells; type: cell-based, dengue virus type 2; conditions: infected 72 hours, M.O.I.=0.1, compound 25 μM
Method: BHK-21 cells were cultured in a 24-well culture plate at an initial density of 3×10^4 per well with 1 ml of 2% FBS-containing MEM medium per well. The cells were incubated in an incubator (37° C., 5% CO2) overnight, and the medium was removed until the cells adhered to the plate. Then, 1 ml of fresh 2% FBS-containing MEM medium was simultaneously added into each well of the culture plate; the cells were infected with the DEN2 virus strain (M.O.I.=0.1); different concentrations of compound 1 (the final concentrations were 0, 2.5 and 25 μM, respectively) were added into different wells. BHK-21 cells were incubated in an incubator (37° C., 5% CO2) for 72 hours, and then their morphology was observed by photography.

[1] = test system: JAK-STAT, AkT-mTOR and ERK-CREB signaling pathway-related proteins; test: Western blot of signaling pathway phosphorylation in JEV T1P1-infected TE671 cells; type: cell-based; conditions: 36 hours, 2.5-250 μM
Method: TE671cells were cultured in a 6-well culture plate at an initial density of 3×10^5 per well with 2 ml of 2% FBS-containing MEM medium per well. The cells were incubated in an incubator (37° C., 5% CO2) overnight. The medium was removed until the cells adhered to the plate. 1 ml of fresh 2% FBS-containing MEM medium was simultaneously added into each well. The cells were infected with JEV T1P1virus strain (M.O.I.=0.05). Different concentrations of compound 1 (the final concentrations were 0, 2.5, 25, 125 and 250 μM, respectively) were added into different wells. The cells were incubated in an incubator (37° C., 5% CO2) for 36 hours. The supernatant was removed, and the TE671 cells were washed with PBS. The PBS was removed, and 150 μl Trypsin-EDTA was added into each well. The cells were incubated in an incubator at 37° C. for 3 minutes. Then, 1 ml MEM medium was added into each well to neutralize EDTA, and the cells were separately collected into 15 ml tubes and precipitated by centrifugation (2000 rpm, 3 minutes). The supernatants were removed. The cells were resuspended with 1 ml PBS per tube, transferred into 1.5 ml microtubes respectively, and precipitated by centrifugation (2000 rpm, 3 minutes). The supernatants were removed and 100 μl radioimmunoprecipitation buffer (RIPA buffer) was added into each well. […]
The above protein samples were analyzed by protein electrophoresis. […]

JEV T1P1 [2] = test: Apoptosis test (Annexin V/PI flow cytometry), JEV T1P1-infected TE671 cells; type: cell-based, Japanese encephalitis virus; conditions: JEV T1P1 infection 36 hours, compound 125 μM; infected without compound 20.1%
Method: (§1) BHK-21 cells and/or TE671cells were separately cultured in a 24-well culture plate, with an initial density of 3×10^4 per well, and with 1 ml of 2% FBS-containing MEM medium per well. The cells were incubated in an incubator (37° C., 5% CO2) overnight, and the medium was removed until the cells adhered to the plate. Then, fresh 2% FBS-containing MEM medium was simultaneously added into each well of the culture plate. The cells were infected with a JEV T1P1 virus strain, wherein the amount of JEV T1P1 used to infect BHK-21 cells was a multiplicity of infection (M.O.I.)=0.1, and the amount of JEV T1P1 used to infect TE671 cells was M.O.I.=0.05. Different concentrations of compound 1 (final concentrations were 0, 2.5, 25 and 125 μM, respectively) were added into different wells. The culture plate was placed into an incubator (37° C., 5% CO2) and maintained therein.
(§2) BHK-21 cells and TE 671 cells were washed with PBS after being infected with the JEV T1P1 virus strain for 36 hours in the above experiment (1). Then, PBS was removed. Trypsin-EDTA (150 μl) was added into each well. The cells were incubated in an incubator at 37° C. for 3 minutes. Then, 1 ml MEM medium was added into each well to neutralize EDTA. […] The cells were maintained in the dark for 5 to 10 minutes, and then analyzed by flow cytomerty.

JEV T1P1 [3] = test: Apoptosis test (Annexin V/PI flow cytometry), JEV T1P1-infected BHK-21 cells; type: cell-based, Japanese encephalitis virus; conditions: JEV T1P1 infection 36 hours; infected without compound 59.05%
Method: as §1, §2

## CCOC(=O)C1=C(Nc2cc(C)cc(C)c2)OCC1=O [Compound 1, ethyl 2-(3′,5′-dimethylanilino)-4-oxo-4,5-dihydrofuran-3-carboxylate]
DEN2
  DEN2-induced cytopathic effect: effectively inhibited
[1]
  phosphorylation levels of JAK-STAT, AkT-mTOR and ERK-CREB signaling pathway-related proteins: increased in a concentration dependent manner
JEV T1P1 [2]
  ratio of TE671 cells getting into late apoptosis: 4.7%
JEV T1P1 [3]
  ratio of BHK-21 cells getting into late apoptosis: reduced by compound 1 in a concentration dependent manner

From patent publication US9205073B2, “Method for treating virus infection using derivative of aniline” (CHINA MEDICAL UNIVERSITY, priority 2014, dated 2015)
